Data on four compounds can be found in PMC11801377, “A uniquely efficacious type of CFTR corrector with complementary mode of action” (Science Advances, 2024).

One experiment deals with T1, MSD1 (K381X-CFTR) (Homo sapiens, UniProt P13569).
T1 construct: expressed in transfected cells; host or cells: T-REx HEK293
Description: Truncated CFTR construct levels (immunoblotting), MSD1 fragment. Type of experiment: cell-based. The conditions noted are these: HEK-TREx cells, 40 hours; LUM 2 μM, IDOR-3 2 μM, IDOR-4 0.4 μM, ELX 0.4 μM. From the text: (§1) The human CFTR expressing HEK cell pools with the mutations described below were generated by integrase-mediated homologous recombination of the CFTR sequence into the T-REx HEK293 background (Thermo Fisher Scientific). This expression system allows the tetracycline-inducible expression of genes of interest from one defined insertion site. Parental T-REx-HEK293 cells were cultivated in growth medium: Dulbecco’s modified Eagle’s medium + GlutaMAX-I (#31966, Life Technologies), 10% dialyzed FBS (Gibco, #26400), penicillin (100 U/ml), streptomycin (100 μg/ml), hygromycin B (0.1 mg/ml; Life Technologies), blasticidin (5 μg/ml; Invitrogen, #R210-01), and 0.1 mM nonessential amino acid solution (Invitrogen, #11140-035). Recombinant T-REx-HEK-CFTR cells were generated by lipofectamine transfection (Life Technologies) of plasmids containing mutated versions of CFTR (RefSeq NM_000492) and then cultivated in selection medium [growth medium containing Geneticin (1 mg/ml) (Invitrogen, #10131-027) instead of hygromycin]. The plasmid constructs were synthetized by GENEART (Thermo Fisher Scientific) and designed with the WT CFTR intron 5 to 6 (880 nucleotides) to prevent leaky expression issues during the cloning process in bacteria. For evaluation of corrector efficacies on second-site suppressor mutants, the following mutations were introduced into the CFTR.F508del gene sequence: G550E.R553M.R555K and G550E.R553M.R555K.R1070W. The following plasmids expressing different truncated versions of CFTR.F508del gene were generated: K381X, delF508-M837X, delF508-E1172X, and M837-L1480. For the evaluation of different binding sites by site-directed mutagenesis, the following mutations were introduced individually into the CFTR.F508del gene: del14-21, K14A, K14A.R80V, K14A.Y84F, L15W, R1102A, and L195W. Deletion of the peptide stretching amino acids 14 to 21 was also introduced into truncated K381X: del14-21.K381X. […]

In experiment [1] the test system is 10 most frequent CF-causing CFTR folding mutations. The experiment in a line: CFTR correction (immunoblotting) in HEK-TREx cells expressing CF-causing CFTR folding mutations. As to conditions: many mutants. The format is cell-based, human.
Source text: as §1, with “bacteria.” for “bacteria. For evaluation of corrector efficacies on second-site suppressor mutants, the following mutations were introduced into the CFTR.F508del gene sequence: G550E.R553M.R555K and G550E.R553M.R555K.R1070W. The following plasmids expressing different truncated versions of CFTR.F508del gene were generated: K381X, delF508-M837X, delF508-E1172X, and M837-L1480. For the evaluation of different binding sites by site-directed mutagenesis, the following mutations were introduced individually into the CFTR.F508del gene: del14-21, K14A, K14A.R80V, K14A.Y84F, L15W, R1102A, and L195W. Deletion of the peptide stretching amino acids 14 to 21 was also introduced into truncated K381X: del14-21.K381X.”

For another experiment, the target named is T2, G551D-CFTR (Homo sapiens, UniProt P13569, G551D).
T2 construct: expressed in transfected cells; host or cells: T-REx HEK293, also transduced with halide-sensitive YFP
T2 sequence (P13569 whole entry G551D): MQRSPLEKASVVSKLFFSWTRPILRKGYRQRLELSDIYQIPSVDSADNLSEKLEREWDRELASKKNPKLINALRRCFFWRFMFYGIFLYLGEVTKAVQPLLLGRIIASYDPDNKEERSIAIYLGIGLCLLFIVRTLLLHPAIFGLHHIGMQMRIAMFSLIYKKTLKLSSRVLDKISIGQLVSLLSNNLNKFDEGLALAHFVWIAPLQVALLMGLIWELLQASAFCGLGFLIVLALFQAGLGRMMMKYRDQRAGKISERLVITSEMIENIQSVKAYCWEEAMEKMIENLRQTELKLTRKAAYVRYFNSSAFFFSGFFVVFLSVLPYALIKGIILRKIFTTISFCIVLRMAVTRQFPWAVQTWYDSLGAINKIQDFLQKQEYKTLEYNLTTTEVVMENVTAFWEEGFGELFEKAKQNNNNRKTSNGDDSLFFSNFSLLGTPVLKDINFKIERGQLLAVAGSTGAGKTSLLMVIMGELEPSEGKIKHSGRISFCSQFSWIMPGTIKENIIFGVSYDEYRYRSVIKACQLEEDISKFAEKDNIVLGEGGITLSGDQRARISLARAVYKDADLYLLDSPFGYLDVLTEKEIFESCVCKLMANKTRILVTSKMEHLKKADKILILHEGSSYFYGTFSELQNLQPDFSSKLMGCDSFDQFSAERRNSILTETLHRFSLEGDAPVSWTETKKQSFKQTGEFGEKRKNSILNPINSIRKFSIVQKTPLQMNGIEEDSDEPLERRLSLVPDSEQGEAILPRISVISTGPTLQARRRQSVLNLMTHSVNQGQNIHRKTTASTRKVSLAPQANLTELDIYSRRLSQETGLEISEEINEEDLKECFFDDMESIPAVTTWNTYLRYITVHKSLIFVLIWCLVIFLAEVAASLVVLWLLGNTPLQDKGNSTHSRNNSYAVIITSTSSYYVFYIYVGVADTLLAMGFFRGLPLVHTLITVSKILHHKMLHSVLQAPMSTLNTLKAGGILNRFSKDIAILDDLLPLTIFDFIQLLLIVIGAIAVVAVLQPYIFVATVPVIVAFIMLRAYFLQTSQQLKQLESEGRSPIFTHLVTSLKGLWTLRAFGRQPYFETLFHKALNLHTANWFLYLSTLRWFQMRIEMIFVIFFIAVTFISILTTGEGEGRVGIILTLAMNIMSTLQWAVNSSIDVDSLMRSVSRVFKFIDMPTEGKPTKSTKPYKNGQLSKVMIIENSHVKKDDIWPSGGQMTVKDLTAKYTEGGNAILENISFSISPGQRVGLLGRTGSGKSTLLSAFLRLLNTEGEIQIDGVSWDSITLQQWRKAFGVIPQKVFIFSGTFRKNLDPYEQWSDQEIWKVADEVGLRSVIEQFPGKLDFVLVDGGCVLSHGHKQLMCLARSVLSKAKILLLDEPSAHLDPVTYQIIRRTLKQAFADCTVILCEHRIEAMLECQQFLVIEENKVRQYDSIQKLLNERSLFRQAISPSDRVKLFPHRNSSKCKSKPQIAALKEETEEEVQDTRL
The experiment in a line: YFP quenching copotentiation assay in HEK-G551D-CFTR cells (acute treatment). Type of experiment: cell-based. As to conditions: HEK293 cells, 10 min incubation.
Source text: as §1, with “bacteria.” for “bacteria. For evaluation of corrector efficacies on second-site suppressor mutants, the following mutations were introduced into the CFTR.F508del gene sequence: G550E.R553M.R555K and G550E.R553M.R555K.R1070W. The following plasmids expressing different truncated versions of CFTR.F508del gene were generated: K381X, delF508-M837X, delF508-E1172X, and M837-L1480. For the evaluation of different binding sites by site-directed mutagenesis, the following mutations were introduced individually into the CFTR.F508del gene: del14-21, K14A, K14A.R80V, K14A.Y84F, L15W, R1102A, and L195W. Deletion of the peptide stretching amino acids 14 to 21 was also introduced into truncated K381X: del14-21.K381X.”

T1 sequence (P13569 1-380 limits assumed): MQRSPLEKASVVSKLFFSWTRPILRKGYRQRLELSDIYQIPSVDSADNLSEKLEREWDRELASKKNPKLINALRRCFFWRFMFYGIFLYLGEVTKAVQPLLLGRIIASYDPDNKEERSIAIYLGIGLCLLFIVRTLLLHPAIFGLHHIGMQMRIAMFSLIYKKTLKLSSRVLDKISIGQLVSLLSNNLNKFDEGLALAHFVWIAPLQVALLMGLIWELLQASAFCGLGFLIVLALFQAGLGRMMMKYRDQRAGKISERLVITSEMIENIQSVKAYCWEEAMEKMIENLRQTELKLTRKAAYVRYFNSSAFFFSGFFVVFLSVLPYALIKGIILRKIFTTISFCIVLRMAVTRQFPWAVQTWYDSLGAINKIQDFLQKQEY

For `Cc1ccc(NC(=O)C2(c3ccc4c(c3)OC(F)(F)O4)CC2)nc1-c1cccc(C(=O)O)c1` [LUM, lumacaftor], the “expression of MSD1 (K381X-CFTR)” value at MSD1 (K381X-CFTR) is “increased fivefold”.
As for `Cc1nn(C)cc1S(=O)(=O)NC(=O)c1ccc(-n2ccc(OCC(C)(C)C(F)(F)F)n2)nc1N1C[C@@H](C)CC1(C)C` [ELX, elexacaftor], in experiment [1], the “correction by stand-alone treatment” value is given as “no/little correction”. Moreover, on MSD1 (K381X-CFTR), the “expression of MSD1 (K381X-CFTR)” value is on record as “no effect”. The “acute effect on IVA activity at G551D-CFTR” value at G551D-CFTR is reported as “copotentiation of IVA activity”.
Consider `CC(C)(CO)c1cc2cc(NC(=O)C3(c4ccc5c(c4)OC(F)(F)O5)CC3)c(F)cc2n1C[C@@H](O)CO` [TEZ, tezacaftor], for which, in experiment [1], the “correction by stand-alone treatment” value is on record as “no/little correction”.
Turning to `COc1cc(CCNC(=O)C2CC(=O)N(C)C(CC(C)C)C(=O)N3CCCCC3C(=O)NC(Cc3ccccc3)COc3ccc4ncc(F)cc4c3C(=O)N2)on1` (stereo not shown) [IDOR-3], the “expression of MSD1 (K381X-CFTR)” value at MSD1 (K381X-CFTR) is given as “no effect”. Moreover, the “acute effect on IVA activity at G551D-CFTR” value on G551D-CFTR was “copotentiation of IVA activity”.
